Consider three compounds from patent US4026888A, “Certain derivatives of particular 3-thiolated cephalosporins” (priority 1976, dated 1977).

Converted amounts (≈) assume the structure as drawn.

A short description of series [1]: Water solubility. It is filed as physicochemical. To be noted: in water at 23° C., read-out: Water solubility.
The nature of series [2]: Stability of solids. The format is physicochemical. To be noted: solid, read-out: Loss of bioactivity on storage at elevated temperatures.
Series [3] has as its system E. coli A15119. In words: Oral PD50 in mice. The format is in vivo. To be noted: Escherichia coli, A15119, po, 3.5 h, oral; mice treated at 1 and 3.5 hours post-challenge; read-out: PD50. Here is the method: (§1) Comparative Oral PD50 Values of
(§2) BL-S640 Derivatives in Mice
(§3) *Mice were treated at 1 and 3.5 hours post-challenge.

The test system of series [4] is K. pneumoniae A9977. As to the kind of experiment: Oral PD50 in mice. It is filed as in vivo. To be noted: Klebsiella pneumoniae, A9977; oral; mice treated at 1 and 3.5 hours post-challenge; read-out: PD50. Here is the method:
as §1, §2, §3

For series [5], the system named is P. mirabilis A9707. In words: Oral PD50 in mice. The format is in vivo. To be noted: Proteus mirabilis, mice treated at 1 and 3.5 hours post-challenge. As for the experimental part: as §1, §2, §3
Series [6] deals with S. pyogenes A9604. As to the kind of experiment: Oral PD50 in mice. It is filed as in vivo. Conditions: Streptococcus pyogenes, mice treated at 1 and 3.5 hours post-challenge. As for the experimental part:
as §1, §2, §3

Series [7] relates to P. mirabilis A9900. As to the kind of experiment: Oral PD50 in mice. The format is in vivo. Conditions: oral, mice treated at 1 and 3.5 hours post-challenge.
Series [8] concerns P. mirabilis A9900. In words: IM PD50 in mice. To be noted: Proteus mirabilis. It is filed as in vivo.
From the text: Comparative IM PD50 Values of
as §2

Series [9] relates to Str. pneumoniae A9585. In words: Antibiotic activity in nutrient broth (MIC). It is filed as cell-based. To be noted: Streptococcus pneumoniae, A9585, inoculum 10^-3 dilution of overnight broth culture; 45% AAB + 5% serum + 50% broth; derivatives adjusted for BL-S640 content. The source says:
(§4) Antibiotic Activity In Nutrient Broth
(§5) * 45% AAB+ 5% serum+ 50% broth listed above.
(§6) ** Dilution of overnight broth culture.
(§7) Antibiotic Spectrum Nutrient Broth
(§8) * 45% AAB + 5% serum + 50% broth
(§9) Antibiotic Spectrum in Nutrient Broth
(§10) *45% AAB + 5% serum + 50% broth listed above.

Series [10] concerns Str. pyogenes A9604. In words: Antibiotic activity in nutrient broth (MIC). To be noted: Streptococcus pyogenes, A9604, inoculum 10^-3; 45% AAB + 5% serum + 50% broth; derivatives adjusted for BL-S640 content; read-out: MIC. It is filed as cell-based.
From the text: as §4, §5, §6, §7, §8, §9, §10

The test system of series [11] is E. coli A9675. As to the kind of experiment: Antibiotic activity in nutrient broth (MIC). The format is cell-based. To be noted: Escherichia coli, A9675.
From the text: as §4, §6, §7, §9

Series [12] has as its system E. coli Juhl A15119. In words: Antibiotic activity in nutrient broth (MIC). It is filed as cell-based. Conditions: Escherichia coli, JUHLA15119.
From the text: as §4, §6, §7, §9

Series [13] relates to Ent. cloacae A9656. As to the kind of experiment: Antibiotic activity in nutrient broth (MIC). It is filed as cell-based. Conditions: Enterobacter cloacae, A9656, inoculum 10^-4; derivatives adjusted for BL-S640 content.
From the text: as §4, §6, §7, §9

The subject of series [14] is Ent. cloacae A9657. In words: Antibiotic activity in nutrient broth (MIC). The format is cell-based. To be noted: Enterobacter cloacae, A9657, inoculum 10^-4; derivatives adjusted for BL-S640 content; read-out: MIC.
From the text: as §4, §6, §7, §9

In series [15] the test system is Ent. cloacae A9659. As to the kind of experiment: Antibiotic activity in nutrient broth (MIC). The format is cell-based. Conditions: Enterobacter cloacae, A9659.
From the text: as §4, §6, §7, §9

Series [16] has as its system K. pneumoniae A15130. In words: Antibiotic activity in nutrient broth (MIC). It is filed as cell-based. To be noted: Klebsiella pneumoniae, A15130.
From the text: as §4, §6, §7, §9

The test system of series [17] is K. pneumoniae A9977. As to the kind of experiment: Antibiotic activity in nutrient broth (MIC). It is filed as cell-based. To be noted: Klebsiella pneumoniae.
From the text: as §4, §6, §7, §9

The subject of series [18] is Pr. mirabilis A9900. In words: Antibiotic activity in nutrient broth (MIC). Conditions: Proteus mirabilis, inoculum 10^-4, derivatives adjusted for BL-S640 content. It is filed as cell-based.
From the text: as §4, §6, §7, §9

The test system of series [19] is Pr. morganii A15153. In words: Antibiotic activity in nutrient broth (MIC). Conditions: Morganella morganii, A15153. It is filed as cell-based.
From the text: as §4, §6, §7, §9

The test system of series [20] is Ps. aeruginosa A9843A. As to the kind of experiment: Antibiotic activity in nutrient broth (MIC). The format is cell-based. To be noted: Pseudomonas aeruginosa.
From the text: as §4, §6, §7, §9

The test system of series [21] is S. aureus BX1633 A9606. In words: Antibiotic activity in nutrient broth (MIC). The format is cell-based. To be noted: Staphylococcus aureus, derivatives adjusted for BL-S640 content.
From the text: as §4, §6, §7, §9

Series [22] relates to S. aureus Meth-Res A15097. In words: Antibiotic activity in nutrient broth (MIC). It is filed as cell-based. To be noted: Staphylococcus aureus.
From the text: as §4, §6, §7, §9

Series [23] has as its system S. aureus Smith A9537. In words: Antibiotic activity in nutrient broth (MIC). To be noted: Staphylococcus aureus, SMITHA9537, inoculum 10^-4, derivatives adjusted for BL-S640 content. The format is cell-based.
From the text: as §4, §6, §7, §9

Series [24] deals with Sal. enteritidis A9531. In words: Antibiotic activity in nutrient broth (MIC). Conditions: Salmonella enterica, ENTERITIDIS, inoculum 10^-4; derivatives adjusted for BL-S640 content; read-out: MIC. It is filed as cell-based.
From the text: as §4, §6, §7, §9

Series [25] deals with Ser. marcescens A20019. In words: Antibiotic activity in nutrient broth (MIC). The format is cell-based. To be noted: Serratia marcescens, A20019, inoculum 10^-4; derivatives adjusted for BL-S640 content.
From the text: as §4, §6, §7, §9

Take `N[C@@H](C(=O)N[C@@H]1C(=O)N2C(C(=O)O)=C(CSc3c[nH]nn3)CS[C@H]12)c1ccc(O)cc1` [7-[D-α-amino-α-(p-hydroxyphenyl)acetamido]-3-(1,2,3-triazol-5-ylthiomethyl)-3-cephem-4-carboxylic acid propylene glycol solvate]: the solubility in series [1] is approximately 10000 µg/mL. The degraded at 720 h in series [2] (56° C., 1 month) is less than 10%. For the same compound, the degraded at 24 h in series [2] (100° C., 24 hours) is less than 6%. Moreover, the degraded at 48 h in series [2] (100° C., 48 hours) was less than 12%.

Consider `CC1=C(C(=O)O)N2C(=O)[C@@H](NC(=O)[C@H](N)c3ccccc3)[C@H]2SC1` [Cephalexin, reference compound], for which the ED50 in series [3] is 13 mg/kg; in series [4], 43 mg/kg; in series [5], 50 mg/kg; in [6], 11 mg/kg; in [7] (Proteus mirabilis, A9900, po, 3.5 h, read-out: PD50), 66 mg/kg; in [8] it was 50 mg/kg. The same compound gave a PD50 in series [7] of 55 mg./kg./treatment.

Regarding `CC(=O)OCC1=C(C(=O)O)N2C(=O)[C@@H](NC(=O)Cc3cccs3)[C@H]2SC1` [Cephalothin, reference compound], the MIC in series [9] was 0.03 µg/mL; in [10], 0.03 µg/mL; in [11] it was 32 µg/mL (≈ 80.7 µM); in series [12], 16 µg/mL (≈ 40.4 µM); in [13], more than 125 µg/mL; in [14], 8 µg/mL (≈ 20.2 µM). Besides, the MIC in series [15] was more than 125 µg/mL; in series [16] it was 32 µg/mL (≈ 80.7 µM); in series [17] it was 1 µg/mL (≈ 2.52 µM); in series [18], 1 µg/mL (≈ 2.52 µM); in series [19], more than 125 µg/mL; in series [20], more than 125 µg/mL. The MIC is 0.25 µg/mL (≈ 0.631 µM) in series [21] (BX1633A9606, inoculum 10^-2); 0.13 µg/mL (≈ 0.328 µM) in series [21] (BX1633A9606, inoculum 10^-3); 1 to 16 µg/mL (≈ 2.52 to 40.4 µM) in series [22]; 0.5 µg/mL in series [23] (+ 50% serum); 0.13 µg/mL (≈ 0.328 µM) in [23] (nutrient broth); 0.25 µg/mL (≈ 0.631 µM) in series [24]. In addition, in [25], the minimal inhibitory concentration (MIC) was more than 125 µg/mL.

In general, solubility refers to how much of the substance goes into solution per volume. Usually MIC stands for the smallest concentration in the dilution series that meets the test's criterion for growth inhibition.
